The series is described as follows: passive permeability, PAMPA, ADME assay (AID 1508612). Particulars: pH 7.4, 30.0 min, 50.0 µM. (In general: The PAMPA barrier holds no transporters, so it reflects passive diffusion.)
The Papp is a coefficient for how fast a substance crosses the barrier. High values mean fast passage, low ones slow passage. As to `O=[S+]([O-])(Nc1ccc(C2CCNCC2)cc1)c1ccc(NCc2ccc(Br)cc2O)cc1`, the Papp came out at 6.3 ×10⁻⁶ cm/s.
Turning to `O=C(NCc1ccccc1)c1nc(S(=O)(=O)Cc2ccc(F)cc2)ncc1Cl`, the Papp is 350 ×10⁻⁶ cm/s.
The value for `NC(=O)c1ccc(-c2ncc3cnc(-c4cccc(F)c4)cn23)cc1` was 480 ×10⁻⁶ cm/s; that for `Cc1cnc(NC(=O)c2ccc(-c3cccc([N+](=O)[O-])c3)o2)s1` was 47.9 ×10⁻⁶ cm/s.
Take `COc1ccc(NC2=C(c3ccc(C(F)(F)F)cc3)C(=O)c3ccccc32)cc1`: the apparent permeability coefficient (Papp) was 82 ×10⁻⁶ cm/s.
`CC(=O)NC(c1cccs1)c1cc(Br)c2cccnc2c1O` (configuration not stated) displayed a Papp of 73 ×10⁻⁶ cm/s.
Take `CC(C)(C)c1ccc(S(=O)(=O)c2cnc(SCC(=O)Nc3ccc(F)c(Cl)c3)[nH]c2=O)cc1`: the apparent permeability coefficient (Papp) worked out at 6.49 ×10⁻⁶ cm/s.
As for `CN(C)c1cccc(-c2cnc(Nc3cccnc3)c3c2CCO3)c1`, the Papp is more than 1000 ×10⁻⁶ cm/s.
Compound `Cc1noc(C)c1C(=O)N1CCC2(CCCN(Cc3ccccc3)C2)CC1` had a Papp of 449 ×10⁻⁶ cm/s.
`Cc1ccc(S(=O)(=O)Nc2cncc(C(=O)Nc3nc(-c4ccccc4)cs3)c2)cc1` had a Papp of 71.2 ×10⁻⁶ cm/s.
The value for `CC1=C[C@@H](CNC(C)C)[C@H](C(C)C)C[C@H]1Cc1nnc(-c2ccncc2)o1` was 649 ×10⁻⁶ cm/s; that for `Cc1cc(C)nc(NC(=S)N2CCN(c3cccc(C(F)(F)F)n3)CC2)c1` was 589 ×10⁻⁶ cm/s; that for `COc1ccc(NC(=O)c2[nH]c(C)c(C(C)=O)c2C)cc1S(=O)(=O)N(C)C` was 329 ×10⁻⁶ cm/s.
The value for `COc1ccnc(NC(=S)N2CCN(c3cccc(C(F)(F)F)n3)CC2)c1` was more than 1000 ×10⁻⁶ cm/s.
Take `Cc1nc2ccc(Nc3nc(-c4ccncc4)nc4ccccc34)cc2s1`: the Papp came to 55.8 ×10⁻⁶ cm/s.
As for `Nc1nc2c(s1)C(c1ccc(Br)cc1)CC(=O)N2` (configuration not stated), the figure is 297 ×10⁻⁶ cm/s; as for `Cc1ccc(NC(=O)NCC2CCN(Cc3cccc(Cl)c3)CC2)cc1Cl`, 746 ×10⁻⁶ cm/s.
In turn, `CCOc1cccc(C(=O)Nc2nc3c(s2)CC(C(C)(C)C)CC3)c1` (configuration not stated) came in with a Papp of less than 1 ×10⁻⁶ cm/s.
`CCOC(=O)c1ccc(-n2cnc3cc(C(=O)N4CCCCC4)ccc32)cc1` came in with a Papp of more than 1000 ×10⁻⁶ cm/s.
In turn, `CC/C=C\C/C=C\C/C=C\C/C=C\C/C=C\C/C=C\CCC(=O)NCCO` registered a Papp of 298 ×10⁻⁶ cm/s.
Take `Cc1ccc2nc(-c3ccccn3)c(Nc3ccccc3C)n2c1`: the Papp is more than 1000 ×10⁻⁶ cm/s.
`CCOc1ccc(CCNC(=O)c2cc3cnccc3n2Cc2cccc(C)n2)cc1OCC` had a Papp of 7.02 ×10⁻⁶ cm/s.
`COc1ccccc1CNC(=O)CCCn1nc(C)c2c(C)n(-c3ccc(C)cc3)nc2c1=O` had a Papp of 604 ×10⁻⁶ cm/s.
As for `CCOc1ccc(-c2csc(N3CCC(C(N)=O)CC3)n2)cc1`, the figure is more than 1000 ×10⁻⁶ cm/s.
Regarding `Cc1ccccc1-c1nc(CN2CCC(C(=O)NCCCN3CCOCC3)CC2)c(C)o1`, the Papp worked out at 432 ×10⁻⁶ cm/s.
For the compound `O=C(O)Cc1ccc2oc(-c3ccc(NC(=O)/C=C/c4ccc(Br)cc4)c(F)c3)nc2c1`, the Papp stood at 6.63 ×10⁻⁶ cm/s.
Compound `O=C1Nc2cccc(Cl)c2/C1=C\c1cc(Cl)c(O)c(Cl)c1` yielded a Papp of 93.9 ×10⁻⁶ cm/s.
`CC(C)N(CCCNC(=O)Nc1ccc(C(C)(C)C)cc1)C[C@H]1O[C@@H](n2cc(Br)c3c(N)ncnc32)[C@H](O)[C@H]1O` gave a Papp of 472 ×10⁻⁶ cm/s.
The compound `CC(=O)c1c(C)[nH]c(C(=O)Nc2cccc(S(=O)(=O)N3CCOCC3)c2)c1C` displayed a Papp of 475 ×10⁻⁶ cm/s.
As for `COC(=O)CNC(=O)c1nc(-c2ccc(Cl)cc2Cl)c2cnccn12`, the figure is more than 1000 ×10⁻⁶ cm/s.
As for `COC(=O)C1=COC(C)C2CN3CCc4c([nH]c5cc(OC)c(OC)cc45)C3CC12` (configuration not stated), the figure is 366 ×10⁻⁶ cm/s; as for `COCCNC(=O)c1ccc(Cn2c(=S)[nH]c3cc4c(cc3c2=O)OCO4)cc1`, 108 ×10⁻⁶ cm/s.
As for `Cc1ccc(NC(=O)N(Cc2cn(C)c3ccccc23)C2CCCCC2)cc1C`, the figure is 20.7 ×10⁻⁶ cm/s; as for `N#Cc1ccc(-c2ccc(CNc3ccc(C4CCNCC4)cc3)o2)cc1`, 459 ×10⁻⁶ cm/s.
For the compound `Cc1onc(-c2ccccc2)c1C(=O)Nc1nnc(COc2ccc(Cl)cc2)s1`, the apparent permeability coefficient (Papp) came out at 247 ×10⁻⁶ cm/s.
Regarding `CC(=O)Nc1ccc(CN2CCc3nc(C(C)C)nc(-c4ccc(Cl)cc4)c3CC2)cc1`, the Papp was more than 1000 ×10⁻⁶ cm/s.
In turn, `COC(=O)c1ccc([C@H]2c3[nH]c4ccccc4c3C[C@H](C(=O)OC)N2C(=O)CCl)cc1` returned a Papp of more than 1000 ×10⁻⁶ cm/s.
Compound `Cc1ccc(S(=O)(=O)Nc2cnccc2C(=O)NCCc2ccccc2)cc1` returned a Papp of 20.3 ×10⁻⁶ cm/s.
As for `O=S(=O)(c1ccc(Cl)cc1)c1ccccn1`, the figure is 407 ×10⁻⁶ cm/s; as for `Fc1ccc(F)c(Nc2nc(-c3ccncc3)nc3ccccc23)c1`, 455 ×10⁻⁶ cm/s.
`Cc1nn2c(c1-c1ccccc1-c1ccccc1)N(Cc1ccccc1)CCC2` showed a Papp of 381 ×10⁻⁶ cm/s.
On to `O=C(Nc1ccc(S(=O)(=O)Nc2nccs2)cc1)c1cccnc1`, for which the Papp is less than 1 ×10⁻⁶ cm/s.
Consider `Cc1cc(NS(=O)(=O)c2ccc(NC(=O)c3oc4ccccc4c3C)cc2)nc(C)n1`, for which the Papp was 282 ×10⁻⁶ cm/s.
The value for `Cc1ccc(-n2ncc3c(NCCCN(C)C)ncnc32)cc1Cl` was more than 1000 ×10⁻⁶ cm/s; that for `COc1ccccc1C(=O)Nc1nnc(SCc2cc(=O)c3ccccc3[nH]2)s1` was 287 ×10⁻⁶ cm/s; that for `Clc1ccccc1-c1nccc(-n2ccnc2)n1` was more than 1000 ×10⁻⁶ cm/s.
On to `COc1ccc(-n2c(C)c(C(C)=O)c3cc(O)ccc32)cc1`, for which the Papp was found to be 415 ×10⁻⁶ cm/s.
As for `CC(=O)c1ccc(N2CCN(S(=O)(=O)c3ccc4c(c3)n(C)c(=O)n4C)CC2)cc1`, the figure is 306 ×10⁻⁶ cm/s.
`COc1ncccc1-c1cc2c(ccn2CC2CCN([S+](C)(=O)[O-])CC2)c(N2CCOCC2)n1`: the Papp is more than 1000 ×10⁻⁶ cm/s.
For the compound `NC1CCN(c2nc(-c3ccc(Br)cc3)cs2)CC1`, the Papp was more than 1000 ×10⁻⁶ cm/s.
For the compound `Cc1cc(C)cc(C(=O)Nc2ccc3c(N4CCCC4)ncnc3c2)c1`, the Papp was more than 1000 ×10⁻⁶ cm/s.
The compound `COc1cccc(C(=O)Nc2nc(-c3nnn(-c4cc(C)ccc4C)c3C)ns2)c1` yielded a Papp of 340 ×10⁻⁶ cm/s.
Regarding `Cc1cc(C)nc(NC(=S)N2CCN(c3cc(C(F)(F)F)nc4ccc(C(F)(F)F)cc34)CC2)c1`, the Papp came to 636 ×10⁻⁶ cm/s.
`COc1ccc(-c2ccc3ncc(Nc4ccc(C(N)=O)cc4)n3n2)cc1OC` yielded a Papp of 149 ×10⁻⁶ cm/s.
On to `COc1ccc(-c2csc(NC(=O)c3ccncc3NS(=O)(=O)c3ccc(C)cc3)n2)cc1`, for which the Papp is more than 1000 ×10⁻⁶ cm/s.
The value for `CC(C)CN(CC(=O)N(CCCN1CCCC1=O)CC(N)=O)C(=O)CNCCc1ccccc1F` was 11.6 ×10⁻⁶ cm/s; that for `N#Cc1cccc(S(=O)(=O)Nc2cnccc2C(=O)Nc2nc(-c3ccccc3)cs2)c1` was 189 ×10⁻⁶ cm/s; that for `CNc1nc2c(s1)C(c1ccccc1F)CC(=O)N2` (configuration not stated) was 52 ×10⁻⁶ cm/s.
`Cc1c(C(=O)OCCOc2ccccc2)[nH]c2c1C(=O)CC(c1ccccc1)C2` (configuration not stated) registered a Papp of 276 ×10⁻⁶ cm/s.
Consider `O=C(c1ccc2c(c1)ncn2-c1cccc(Cl)c1)N1CCCCC1`, for which the apparent permeability (Papp) is 895 ×10⁻⁶ cm/s.
In the case of `CC(C)C(=O)N1CCc2ccc(OCc3nc(C(=O)N4CCCC4)co3)cc2C1c1cccc(F)c1` (configuration not stated), the Papp turned out to be 188 ×10⁻⁶ cm/s.
Compound `O=C(CCCCCCC(=O)Nc1ccccc1)NO` displayed a Papp of 63.4 ×10⁻⁶ cm/s.
For `Cc1ccc(C(=O)Nc2ccc3oc(-c4cccnc4)nc3c2)cc1[N+](=O)[O-]`, the Papp came out at 82.5 ×10⁻⁶ cm/s.
As for `Cn1ccc2c(C(=O)NCc3cccnc3)nc(-c3ccc(CO)cc3)cc21`, the Papp came to 317 ×10⁻⁶ cm/s.
On to `COc1cc(Nc2nc(-c3ccncc3)nc3ccccc23)ccc1Cl`, for which the Papp was 19.8 ×10⁻⁶ cm/s.
In turn, `COc1ccc(CNc2ccc(S(=O)(=O)Nc3nccs3)cc2)cc1O` had a Papp of 19.3 ×10⁻⁶ cm/s.
For `Cc1cccc(C)c1Nc1c(-c2cccs2)nc2ncccn12`, the Papp is 969 ×10⁻⁶ cm/s.

Source of the values: PubChem BioAssay AID1508612.
